The record followed here is patent publication US10426775B2, “Methods for treating Friedreich's ataxia with etravirine” (Fratagene Therapeutics srl, priority 2017, dated 2019).

For assay [1], the system named is frataxin. Put plainly: Western blot of frataxin in lymphoblastoid cell lines derived from FRDA patients. The format is cell-based, human. As to the method:
Lymphoblastoid cell lines from one healthy subject [GM16215] and 7 FRDA patients [GM16228, GM16203, GM16214, GM16223, GM16210, GM16205, GM16216], and primary fibroblasts from 2 FRDA patients [GM02816 and GM04078], were obtained from NIGMS Human Genetic Cell Repository, Coriell Institute for Medical Research (Camden, N.J., USA). Lymphoblasts and fibroblasts were grown at 37° C. and 5% CO2 and were respectively cultured in RPMI or DMEM, supplemented with 15% FBS, […] penicillin/streptomycin and 2 mM L-glutamine.
For the validation steps, etravirine (TMC125) was purchased from Selleckchem and was dissolved in DMSO at a stock concentration of 10 mM. HEK-293 Flp-In cells, stably overexpressing frataxin, were treated with the drug (or only DMSO) for 24 hours at final concentration of 10 μM. FRDA cells were treated with different concentration of etravirine. For all drug (and no drug) treatments, the final concentration of DMSO in the cell culture medium was 0.1%.
(§1) Total cell extracts were prepared in lysis buffer (50 mM Tris-HCl, pH 7.5, 150 mM NaCl, 1% Igepal CA-630, 5 mM EDTA, 5 mM EGTA) supplemented with complete protease inhibitor cocktail (Roche Diagnostics, Indianapolis, Ind., USA). Lysates were clarified by centrifugation and supernatants were mixed with 4× Laemmli sample buffer (50 mM Tris pH 6.8, 2% SDS, 10% gliycerol, 0.0025% bromophenol blue, 5% beta-mercaptoethanol), boiled for 5 min, resolved by precast 12% SDS-PAGE gels (Bio-Rad Laboratories, Hercules, Calif., USA) and transferred to […] nitrocellulose membrane (TRANS-BLOT® TURBO™ Transfer pack, Bio-Rad). Membranes were blocked with 5% non-fat dry milk, 0.1% Tween 20 in phosphate-buffered saline (PBS) and incubated with the indicated primary and secondary antibodies. The immunoreactive bands were detected by ECL (GE Healthcare, Chalfont St. Giles, UK) and imaged with a ChemiDoc XRS system (Bio-Rad). Densitometry analysis was performed using the ImageLab 4.1 Software (Bio-Rad). To analyse the western blot densitometry results, a Student's t test was applied. All values are expressed as means±1 S.E.M.
In order to evaluate whether the precursor that readily accumulates upon etravirine treatment can be converted into the mature functional form of frataxin, we tested the effect of different doses of etravirine, ranging from 100 nM to 10 μM, on a lymphoblastoid cell line, GM16203, derived from an FRDA patient. The cells were treated with the indicated doses of etravirine for 24 hours. Cell extracts were resolved on SDS-PAGE and analyzed by western blot analysis with anti-frataxin and anti-tubulin, as a loading control. We tested different doses, ranging from 100 nM to 3 μM, on the lymphoblastoid cell line GM16203.
A) FRDA lymphoblast cells, GM16203, were treated with the indicated doses of etravirine for 24 hours. Cell extracts were resolved on SDS-PAGE and analyzed by western blot analysis with anti-frataxin (lower panel) and anti-tubulin (upper panel), as a loading control. Int: intermediate frataxin; mat: mature frataxin; tub: tubulin. B) The graph represents the relative mature frataxin levels measured by densitometric analysis of independent blots and normalized with tubulin levels. Data represent the average of three independent experiments±S.E.M. p-values were calculated with Student's t-test (*p<0.05; **p<0.01)
We chose the minimal effective dose (300 nM) to evaluate the efficacy of etravirine over a broad range of cells derived from FRDA patients. In particular, we analysed 7 lymphoblastoid cell lines derived from FRDA patients and primary fibroblasts derived from two different FRDA patients. Each cell line was treated with 300 nM etravirine for 24 hours. Cell extracts were resolved on SDS-PAGE and analyzed by western blot analysis with anti-frataxin and anti-tubulin, as a loading control. Etravirine promotes increase in intermediate and mature frataxin levels in all the cell lines tested upon 24 hours of treatment (FIGS. 3A-3B). […]

Assay [2] concerns frataxin precursor. As to the kind of experiment: Western blot of frataxin in HEK293 cells expressing only endogenous frataxin. The format is cell-based, human. As to conditions: 10 μM etravirine. As to the method:
as §1, with “Membranes were blocked with 5% non-fat dry milk, 0.1% Tween 20 in phosphate-buffered saline (PBS) and incubated with the indicated primary and secondary antibodies.” left out, “Densitometry analysis was performed using the ImageLab 4.1 Software (Bio-Rad). To analyse the western blot densitometry results, a Student's t test was applied.” left out
The identified candidate drugs were individually validated for their ability to promote frataxin accumulation in different cell types. […] Protein extracts from the cell lines were resolved on SDS-PAGE and analyzed by western blot with anti-frataxin antibody and anti-tubulin as a loading control. […]
HEK 293-fxn stably expressing frataxin (A), HEK 293 (B), or FRDA lymphoblast cell line GM16203 (C) were treated with 10 μM etravirine for the indicated time points. Protein extracts were resolved on SDS-PAGE and analyzed by western blot with anti-frataxin antibody and anti-tubulin as a loading control. […]
A general note: A western blot detects proteins with antibodies after separation by electrophoresis.

SMILES strings stand for the structures.

As to `Cc1cc(C#N)cc(C)c1Oc1nc(Nc2ccc(C#N)cc2)nc(N)c1Br` [etravirine], the frataxin precursor accumulation result in assay [1] (FRDA lymphoblast cell line GM16203, 10 μM etravirine) is reported as “can also be detected”; in assay [2] it was “can also be detected”. Besides, the “average fold increase in mature frataxin levels” value in assay [1] (GM16203 lymphoblasts (830 GAA repeats), 300 nM etravirine, 24 hours) is 1.41 fold; in assay [1] (GM16205 lymphoblasts (530 GAA repeats), 300 nM etravirine, 24 hours), 1.58 fold; in assay [1] (GM16210 lymphoblasts (580 GAA repeats), 300 nM etravirine, 24 hours), 1.22 fold; in assay [1] (GM16214 lymphoblasts (700 GAA repeats), 300 nM etravirine, 24 hours), 1.71 fold; in assay [1] (GM16216 lymphoblasts (500 GAA repeats), 300 nM etravirine, 24 hours) it was 1.21 fold; in assay [1] (GM16223 lymphoblasts (630 GAA repeats), 300 nM etravirine, 24 hours), 1.22 fold. For the same compound, the “average fold increase in mature frataxin levels” value in assay [1] (GM16228 lymphoblasts (840 GAA repeats), 300 nM etravirine, 24 hours) is on record as 1.62 fold. Also, the “minimal effective dose (sufficient for a significant increase in intermediate and mature frataxin forms)” value in assay [1] (GM16203 lymphoblasts, 24 hours, doses 100 nM to 10 μM) is recorded as 300 nM. Moreover, the “frataxin form induced at the highest dose” value in assay [1] (GM16203 lymphoblasts, 24 hours, etravirine at 10 (μM)) is reported as “mostly induces precursor accumulation”. Besides, the “frataxin accumulation in treated patient cells vs unaffected carrier cells” value in assay [1] (GM16214 treated vs GM16215 untreated, 24 hours, 300 nM etravirine) is on record as “comparable to frataxin levels in untreated cells derived from healthy control”. Besides, the “overall increase in mature frataxin levels in cells derived from FRDA patients” value in assay [1] (all FRDA lymphoblastoid lines and fibroblasts tested, 300 nM etravirine, 24 hours) is reported as 50%.
